These results are taken from patent US20110152194A1, “CHIMERIC NATRIURETIC POLYPEPTIDES AND METHODS FOR INHIBITING CARDIAC REMODELING” (MAYO FOUNDATION FOR MEDICAL EDUCATION AND RESEARCH, priority 2008, published 2011).

Series [1] deals with male mongrel dogs. The series is described as follows: In vivo actions of CD-NP, CNP and CNP-C continuous i.v. infusion in anesthetized dogs. More on the design: species or system dog. The following applies: for ANG II, angiotensin II / Aldosterone / CO, cardiac output / DFRNa, distal fractional reabsorption of Na+ / GFR, glomerular filtration rate / MAP, mean arterial pressure / PAP, pulmonary arterial pressure / PCWP, pulmonary capillary wedge pressure / PFRNa, proximal fractional reabsorption of Na+ / PRA, plasma renin activity / PVR, pulmonary vascular resistance / RAP, right atrial pressure / RBF / RVR, renal vascular resistance / SVR, systemic vascular resistance: dogs, 75 min i.v. infusion of CD-NP 50 ng/kg/min or equimolar CNP.

For series [2] the following is noted: in vivo; cited from earlier work.
The test system of series [3] is normal anesthetized dogs. The conditions noted are these: dog, in vivo.

Several values for one entry are separate records, joined by “and”; a condition that tells them apart may be missing. Identical values can stand only once. Like-named read-outs stand apart in the source and are kept apart here.

On to GLSKGCFGLKLDRIGSMSGLGC [CNP], for which, in series [1] (30 min I), the “ANG II, angiotensin II” value was found to be 7.5 ± 1.4 pg/mL; the Aldosterone turned out to be 21.1 ± 3.8 ng/dL; the “CO, cardiac output” value stood at 3.3 ± 0.3 L/min; the “DFRNa, distal fractional reabsorption of Na+” value was found to be 97 ± 0.4%. Further, in series [1] (30 min I), the “GFR, glomerular filtration rate” value came out at 52.7 ± 6.7 mL/min; the “MAP, mean arterial pressure” value came to 127 ± 4 mmHg; the “PAP, pulmonary arterial pressure” value amounted to 12.8 ± 0.8 mmHg; the “PCWP, pulmonary capillary wedge pressure” value is 4.6 ± 0.5 mmHg. In series [1] (30 min I), the “PFRNa, proximal fractional reabsorption of Na+” value amounted to 73 ± 2%; the “PRA, plasma renin activity” value stood at 1.9 ± 0.6 ng/mL/h; the “PVR, pulmonary vascular resistance” value turned out to be 1.9 ± 0.2 mmHgL^−1 · min; the “RAP, right atrial pressure” value was 2.5 ± 0.3 mmHg. For the same substance, in series [1] (30 min I), the RBF amounted to 294.2 ± 30.8 mL/min; the “RVR, renal vascular resistance” value is given as 0.47 ± 0.06 × 10^−3 mmHg · L^−1 · min; the “SVR, systemic vascular resistance” value is recorded as 39.9 ± 2.7 mmHgL^−1 · min. In series [1] (60 min I), the “ANG II, angiotensin II” value worked out at 10.4 ± 2.8 pg/mL; the Aldosterone was 21.4 ± 3.7 ng/dL; the “CO, cardiac output” value worked out at 2.8 ± 0.3 L/min; the “DFRNa, distal fractional reabsorption of Na+” value is 97 ± 0.9%. In series [1] (60 min I), the “GFR, glomerular filtration rate” value was 49.5 ± 4.2 mL/min; the “MAP, mean arterial pressure” value is 128 ± 4 mmHg; the “PAP, pulmonary arterial pressure” value is listed as 13.2 ± 0.7 mmHg; the “PCWP, pulmonary capillary wedge pressure” value was 5.6 ± 0.7 mmHg. Moreover, in series [1] (60 min I), the “PFRNa, proximal fractional reabsorption of Na+” value came to 72 ± 1%; the “PRA, plasma renin activity” value turned out to be 2.5 ± 0.7 ng/mL/h; the “PVR, pulmonary vascular resistance” value was determined as 2.1 ± 0.3 mmHgL^−1 · min; the “RAP, right atrial pressure” value amounted to 2.9 ± 0.3 mmHg. Also, in series [1] (60 min I), the RBF was 277.8 ± 29.2 mL/min; the “RVR, renal vascular resistance” value is reported as 0.49 ± 0.06 × 10^−3 mmHg · L^−1 · min; the “SVR, systemic vascular resistance” value was 46.9 ± 2.7^† mmHgL^−1 · min. Moreover, in series [1] (Post-I), the “ANG II, angiotensin II” value is listed as 14.4 ± 5.0 pg/mL; the Aldosterone was 22.0 ± 4.2 ng/dL; the “CO, cardiac output” value is 2.6 ± 0.1 L/min; the “DFRNa, distal fractional reabsorption of Na+” value turned out to be 97 ± 0.8%. Besides, in series [1] (Post-I), the “GFR, glomerular filtration rate” value was 48.8 ± 5.6 mL/min; the “MAP, mean arterial pressure” value is listed as 128 ± 4 mmHg; the “PAP, pulmonary arterial pressure” value came out at 13.9 ± 0.7 mmHg; the “PCWP, pulmonary capillary wedge pressure” value was found to be 6.4 ± 0.8 mmHg. Further, in series [1] (Post-I), the “PFRNa, proximal fractional reabsorption of Na+” value is 73 ± 2%; the “PRA, plasma renin activity” value came to 3.2 ± 1.0 ng/mL/h; the “PVR, pulmonary vascular resistance” value came to 2.2 ± 0.4 mmHgL^−1 · min; the “RAP, right atrial pressure” value is listed as 3.5 ± 0.5 mmHg. In addition, in series [1] (Post-I), the RBF turned out to be 272.0 ± 24.5 mL/min; the “RVR, renal vascular resistance” value is 0.49 ± 0.06 × 10^−3 mmHg · L^−1 · min; the “SVR, systemic vascular resistance” value is reported as 48.7 ± 2.5^† mmHgL^−1 · min. Further, in series [1] (Pre-I (pre-infusion)), the “ANG II, angiotensin II” value stood at 11.7 ± 4.7 pg/mL; the Aldosterone turned out to be 15.1 ± 4.2 ng/dL; the “CO, cardiac output” value turned out to be 3.8 ± 0.3 L/min; the “DFRNa, distal fractional reabsorption of Na+” value was found to be 98 ± 0.6%. Further, in series [1] (Pre-I (pre-infusion)), the “GFR, glomerular filtration rate” value came to 52.2 ± 5.3 mL/min; the “MAP, mean arterial pressure” value came to 123 ± 4 mmHg; the “PAP, pulmonary arterial pressure” value is given as 13.1 ± 0.8 mmHg; the “PCWP, pulmonary capillary wedge pressure” value amounted to 5.0 ± 0.5 mmHg. Besides, in series [1] (Pre-I (pre-infusion)), the “PFRNa, proximal fractional reabsorption of Na+” value is recorded as 80 ± 3%; the “PRA, plasma renin activity” value was 2.9 ± 1.4 ng/mL/h; the “PVR, pulmonary vascular resistance” value is listed as 1.8 ± 0.2 mmHgL^−1 · min; the “RAP, right atrial pressure” value was 2.6 ± 0.3 mmHg. In series [1] (Pre-I (pre-infusion)), the RBF stood at 273.4 ± 25.5 mL/min; the “RVR, renal vascular resistance” value is recorded as 0.49 ± 0.07 × 10^−3 mmHg · L^−1 · min; the “SVR, systemic vascular resistance” value is reported as 33.8 ± 2.9 mmHgL^−1 · min. In addition, the half-life entry in series [2] is “about a minute and a half”.

On to PSLRDPRPNAPSTSA [C-terminus], for which, in series [3], the “DFRNa, distal fractional sodium reabsorption” value is 98.7 ± 0.3%; the “GFR, glomerular filtration rate” value was 34 ± 6 mL/min; the “PFRNa, proximal fractional sodium reabsorption” value was found to be 77.9 ± 2.7%; the “RBF, renal blood flow” value is 213 ± 19 mL/min. Further, in series [3], the “UcGMPV, urinary cGMP excretion” value stood at 1674 ± 213 pmol/min. Also, in series [3] (iv), the “DFRNa, distal fractional sodium reabsorption” value was determined as 97.8 ± 0.5%; the “GFR, glomerular filtration rate” value was determined as 44 ± 6 mL/min; the “PFRNa, proximal fractional sodium reabsorption” value was 71.0 ± 2.6 %; the “RBF, renal blood flow” value worked out at 198 ± 27 mL/min. For the same substance, in series [3] (iv), the “UcGMPV, urinary cGMP excretion” value was 2275 ± 231 pmol/min; the “natriuretic and diuretic action (urinary excretion of sodium, urine flow)” value was “natriuretic and diuretic”.

In the case of GLSKGCFGLKLDRIGSMSGLGCGKSLG [CNP-C], in series [1] (dog, in vivo, iv), the “ANG II” value is given as “did not result in any significant changes”; the GFR entry is “did not result in any significant changes”; the PRA entry is “did not result in any significant changes”; the “Pulmonary capillary wedge pressure” value is 4.3±0.8 mmHg and 3.4±0.8 mmHg. Also, in series [1] (dog, in vivo, iv), the diuresis entry was “did not result in any significant changes”; the mean arterial pressure was 132±6 mmHg and 128±5 mmHg; the natriuresis result is “did not result in any significant changes”; the “plasma cGMP” value is listed as “did not result in any significant changes”. Further, in series [1] (dog, in vivo, iv), the “urinary cGMP excretion” value is reported as “did not result in any significant changes”.

With B-type natriuretic peptide [BNP], the GFR result in series [3] is listed as “lack of increase”.
